Experimental data reported in the Kinase Knowledgebase extract (Sharma et al. 2016).
pIC50: −log10 of the molar value.

Molecular target: PIK3CA (human) (UniProt P42336)
Assay: Assessment of PIK3CA Kinase Activity

Sequence of PIK3CA (human) (P42336 whole entry, looked up): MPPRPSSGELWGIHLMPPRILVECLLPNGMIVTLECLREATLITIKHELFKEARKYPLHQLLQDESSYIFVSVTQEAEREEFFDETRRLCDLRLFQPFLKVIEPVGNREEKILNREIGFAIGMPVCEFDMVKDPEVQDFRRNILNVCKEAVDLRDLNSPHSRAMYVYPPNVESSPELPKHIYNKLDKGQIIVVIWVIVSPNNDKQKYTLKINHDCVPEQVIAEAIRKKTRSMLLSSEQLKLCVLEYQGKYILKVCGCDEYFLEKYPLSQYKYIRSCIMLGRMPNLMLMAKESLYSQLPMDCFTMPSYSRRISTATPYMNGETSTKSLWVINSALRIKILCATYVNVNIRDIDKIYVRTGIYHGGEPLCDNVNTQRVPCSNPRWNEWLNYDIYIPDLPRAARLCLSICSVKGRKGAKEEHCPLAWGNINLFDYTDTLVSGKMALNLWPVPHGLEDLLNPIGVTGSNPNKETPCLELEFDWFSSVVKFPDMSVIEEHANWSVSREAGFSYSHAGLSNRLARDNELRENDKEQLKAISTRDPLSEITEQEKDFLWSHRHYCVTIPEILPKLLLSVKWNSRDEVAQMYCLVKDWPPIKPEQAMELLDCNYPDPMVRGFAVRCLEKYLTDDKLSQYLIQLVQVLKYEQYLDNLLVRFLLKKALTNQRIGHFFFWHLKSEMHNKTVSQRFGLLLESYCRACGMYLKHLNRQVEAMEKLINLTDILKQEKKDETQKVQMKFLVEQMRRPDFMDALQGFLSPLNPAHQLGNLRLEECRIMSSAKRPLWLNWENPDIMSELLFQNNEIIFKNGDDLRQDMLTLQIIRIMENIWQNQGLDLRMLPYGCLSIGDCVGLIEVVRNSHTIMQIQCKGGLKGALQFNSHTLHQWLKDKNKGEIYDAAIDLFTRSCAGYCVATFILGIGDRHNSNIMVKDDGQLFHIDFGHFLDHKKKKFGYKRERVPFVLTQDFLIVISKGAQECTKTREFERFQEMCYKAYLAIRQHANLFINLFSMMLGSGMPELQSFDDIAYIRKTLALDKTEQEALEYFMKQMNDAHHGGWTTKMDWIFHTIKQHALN

| Compound | pIC50 |
| --- | --- |
| CC(=O)N1CC(N(C(C)=O)c2ccc3c(n2)-c2sc(-c4ncnn4-c4ccc(F)cc4F)cc2CCO3)C1 | > 6.00 |
| Cc1ccncc1-c1ccc2c(c1)-c1nc(-c3ncnn3C(C)C)sc1CCO2 | > 6.00 |
| CN(C)CCCc1ccc2c(n1)-c1sc(-c3ncnn3-c3ccc(F)cc3F)cc1CCO2 | > 6.00 |
| CC(C)n1ncnc1-c1nc2c(s1)CCOc1cc(C3CN(S(=O)(=O)CCN(C)C)C3)ccc1-2 | > 6.00 |
| CC(C)n1ncnc1-c1nc2c(s1)CCOc1ccc(-c3cccn(CC(N)=O)c3=O)cc1-2 | > 6.00 |
| Fc1ccc(-n2ncnc2-c2nc3c(s2)CCOc2cc(-c4cn[nH]c4)ccc2-3)c(F)c1 | > 6.00 |
| CC(C)n1ncnc1-c1nc2c(s1)CCOc1ccc(C3CCN(C(=O)[C@H](C)O)CC3)cc1-2 | > 6.00 |
| CN(C(=O)c1nc2c(s1)CCOc1cc(-c3cn[nH]c3)ccc1-2)C1CCS(=O)(=O)C1 (configuration not stated) | > 6.00 |
| O=C(c1nc2c(s1)CCOc1cc(-c3cn[nH]c3)ccc1-2)N1CCCC1 | > 6.00 |
| CC(C)n1ncnc1-c1nc2c(s1)CCOc1cc(-c3cc[nH]c(=O)c3)ccc1-2 | > 6.00 |
| CNC(=O)c1ccc2c(c1)OCCc1cc(C(=O)N(C)c3cc(C(=O)N4CC(O)C4)ccc3Cl)sc1-2 | > 6.00 |
| O=C(c1nc2c(s1)CCOc1cc(-c3cn[nH]c3)ccc1-2)N1CCC[C@@H]1Cc1ccccn1 | > 6.00 |
| Fc1ccc(-n2ncnc2-c2cc3c(s2)-c2nc(NC4COC4)ccc2OCC3)c(F)c1 | > 6.00 |
| Cc1nc(-c2nc3c(s2)CCOc2cc(CNC(N)=O)ccc2-3)n(C(C)C)n1 | > 6.00 |
| CNC(=O)CN1CCC(c2ccc3c(c2)OCCc2sc(-c4ncnn4C(C)C)nc2-3)CC1 | > 6.00 |
| CC(C)n1ncnc1-c1nc2c(s1)CCOc1ccc(-c3ccc[nH]c3=O)cc1-2 | > 6.00 |
| C[C@H](O)C(=O)N1CC(Nc2ccc3c(n2)-c2sc(-c4ncnn4-c4ccc(F)cc4F)cc2CCO3)C1 | > 6.00 |
| CN1CCC(n2ncnc2-c2nc3c(s2)CCOc2cc(-c4cnn(CC(C)(C)O)c4)ccc2-3)CC1 | > 6.00 |
| O=C(c1nc2c(s1)CCOc1cc(-c3cn[nH]c3)ccc1-2)N1CCC[C@@H](O)C1 | > 6.00 |
| CS(=O)(=O)N1CCN(c2ccc3c(n2)-c2sc(-c4ncnn4-c4ccc(F)cc4F)cc2CCO3)CC1 | > 6.00 |
| CC(C)n1ncnc1-c1nc2c(s1)CCOc1ccc(-c3cccnc3)cc1-2 | > 6.00 |
| C[C@@H]1CN(c2ccc3c(n2)-c2sc(-c4ncnn4-c4ccc(F)cc4F)cc2CCO3)C[C@H](C)N1CC(F)F | > 6.00 |
| CNC(=O)c1ccc2c(c1)OCCc1cc(C(=O)N(C)c3cc(C(=O)N(C)CCO)ccc3Cl)sc1-2 | > 6.00 |

| Compound | pIC50 |
| --- | --- |
| COCC1CCN(C(=O)c2nc3c(s2)CCOc2cc(-c4cn[nH]c4)ccc2-3)CC1 | > 6.00 |
| O=C(c1nc2c(s1)CCOc1cc(-c3cn[nH]c3)ccc1-2)N1CCN(CC2CC2)CC1 | > 6.00 |
| O=C(c1nc2c(s1)CCOc1cc(-c3cn[nH]c3)ccc1-2)N1CCN(c2ccccn2)CC1 | > 6.00 |
| O=C(c1nc2c(s1)CCOc1cc(-c3cn[nH]c3)ccc1-2)N1CCC(O)CC1 | > 6.00 |
| O=C(O)CNc1ccc2c(n1)-c1sc(-c3ncnn3-c3ccc(F)cc3F)cc1CCO2 | > 6.00 |
| CC(C)n1ncnc1-c1nc2c(s1)CCOc1cc(C3CN(C(=O)C4(N)CC4)C3)ccc1-2 | > 6.00 |
| O=C(c1nc2c(s1)CCOc1cc(-c3cn[nH]c3)ccc1-2)N1CCCCC1 | > 6.00 |
| CC(C)n1ncnc1-c1nc2c(s1)CCOc1ccc(-c3cccn(CC(=O)N(C)C)c3=O)cc1-2 | > 6.00 |
| CC(C)n1cnnc1-c1nc2c(s1)CCOc1cc(CNCCO)ccc1-2 | > 6.00 |
| CCNC(=O)NCc1ccc2c(c1)OCCc1sc(-c3nc(C)nn3C(C)C)nc1-2 | > 6.00 |
| CC(C)n1ncnc1-c1nc2c(s1)CCOc1ccc(-c3ccc(N4CCOCC4)nc3)cc1-2 | > 6.00 |
| CN(C[C@H]1CCCO1)C(=O)c1nc2c(s1)CCOc1cc(-c3cn[nH]c3)ccc1-2 | > 6.00 |
| CC(=O)N1[C@H](C)CN(c2ccc3c(n2)-c2sc(-c4ncnn4-c4ccc(F)cc4F)cc2CCO3)C[C@@H]1C | > 6.00 |
| COc1ccncc1-c1ccc2c(c1)-c1nc(-c3ncnn3C(C)C)sc1CCO2 | > 6.00 |
| CC(C)n1ncnc1-c1nc2c(s1)CCOc1ccc(/C=C/S(C)(=O)=O)cc1-2 | > 6.00 |
| CC(C)n1ncnc1-c1nc2c(s1)CCOc1cc(C3(O)CCNCC3)ccc1-2 | > 6.00 |
| Cc1cnc(F)c(-c2ccc3c(c2)-c2nc(-c4ncnn4C(C)C)sc2CCO3)c1 | > 6.00 |
| CC(C)n1ncnc1-c1nc2c(s1)CCOc1ccc(-c3ccc(S(N)(=O)=O)cc3)cc1-2 | > 6.00 |
| O=C(c1nc2c(s1)CCOc1cc(-c3cn[nH]c3)ccc1-2)N(CCO)C1CCCC1 | > 6.00 |
| CC(C)n1ncnc1-c1nc2c(s1)CCOc1ccc(C3CN(CCO)C3)cc1-2 | > 6.00 |
| O=C(c1nc2c(s1)CCOc1cc(-c3cn[nH]c3)ccc1-2)N1CCCN(c2ccncc2)CC1 | > 6.00 |
| O=C(c1nc2c(s1)CCOc1cc(-c3cn[nH]c3)ccc1-2)N1CCN(C(=O)C2CC2)CC1 | > 6.00 |
| CNC(=O)Cn1ccnc1-c1nc2c(s1)CCOc1cc(-c3cnn(CC(C)(C)O)c3)ccc1-2 | > 6.00 |

| Compound | pIC50 |
| --- | --- |
| O=C(c1nc2c(s1)CCOc1cc(-c3cn[nH]c3)ccc1-2)N1CCCN(c2ccccn2)CC1 | > 6.00 |
| CC(C)n1ncnc1-c1nc2c(s1)CCOc1ccc(C(=O)NCCO)cc1-2 | > 6.00 |
| CN1CC(C)(C)N(c2nc3c(s2)CCOc2cc(-c4cnn(CC(C)(C)O)c4)ccc2-3)C1=O | > 6.00 |
| CN(CCO)C(=O)c1nc2c(s1)CCOc1cc(-c3cn[nH]c3)ccc1-2 | > 6.00 |
| CC(C)n1ncnc1-c1nc2c(s1)CCOc1cc(C3CCN(CC(=O)NC(C)(C)C)CC3)ccc1-2 | > 6.00 |
| CC(C)n1ncnc1-c1nc2c(s1)CCOc1ccc(-c3ccc(F)nc3)cc1-2 | > 6.00 |
| CC(C)n1ncnc1-c1nc2c(s1)CCOc1cc(C3CCN(CCS(=O)(=O)N(C)C)CC3)ccc1-2 | > 6.00 |
| Cc1nc(-c2nc3c(s2)CCOc2cc(-c4ccccc4S(N)(=O)=O)ccc2-3)n(C(C)C)n1 | > 6.00 |
| CC(C)n1c(-c2nc3c(s2)CCOc2cc(-c4cnn(CC5(C)COC5)c4)ccc2-3)n[nH]c1=O | > 6.00 |
| Fc1ccc(-n2ncnc2-c2cc3c(s2)-c2nc(N4CCN(CC(F)(F)F)CC4)ccc2OCC3)c(F)c1 | > 6.00 |
| CN(C)C1CCN(C(=O)c2nc3c(s2)CCOc2cc(-c4cn[nH]c4)ccc2-3)CC1 | > 6.00 |
| CNC(=O)C(C)(C)N1CC(c2ccc3c(c2)OCCc2sc(-c4ncnn4C(C)C)nc2-3)C1 | > 6.00 |
| CC(C)n1ncnc1-c1nc2c(s1)CCOc1cc(C3CN(CCS(=O)(=O)N(C)C)C3)ccc1-2 | > 6.00 |
| CNC(=O)c1ccc2c(c1)OCCc1cc(C(=O)N(C)c3cc(C(=O)N4CC(F)(F)C4)ccc3Cl)sc1-2 | > 6.00 |
| FC(F)(F)Cn1ncnc1-c1nc2c(s1)CCOc1ccc(-c3cnn(CCN4CCOCC4)c3)cc1-2 | > 6.00 |
| CN1CCN(C(=O)c2ccc(Cl)c(N(C)C(=O)c3cc4c(s3)-c3ccc(C(=O)NCCS(C)(=O)=O)cc3OCC4)c2)CC1 | > 6.00 |
| CC(C)(O)Cn1cc(-c2ccc3c(c2)OCCc2sc(N4C(=O)OCC4(C)C)nc2-3)cn1 | > 6.00 |
| COc1ccc(-c2ccc3c(c2)-c2nc(-c4ncnn4C(C)C)sc2CCO3)cn1 | > 6.00 |
| O=C(NCCO)c1ccc2c(c1)OCCc1sc(-c3ncnn3CC(F)(F)F)nc1-2 | > 6.00 |
| O=C(c1nc2c(s1)CCOc1cc(-c3cn[nH]c3)ccc1-2)N(CCO)C1CCCCC1 | > 6.00 |
| C[C@@H]1CCN(C(=O)c2nc3c(s2)CCOc2cc(-c4cn[nH]c4)ccc2-3)C1 | > 6.00 |
| C[C@H](O)C(=O)N1CCN(c2ccc3c(n2)-c2sc(-c4ncnn4-c4ccc(F)cc4F)cc2CCO3)CC1 | > 6.00 |
| Cc1ccc(-c2ccc3c(c2)-c2nc(-c4ncnn4C(C)C)sc2CCO3)cn1 | > 6.00 |

| Compound | pIC50 |
| --- | --- |
| O=C(c1nc2c(s1)CCOc1cc(-c3cn[nH]c3)ccc1-2)N1CCC1 | > 6.00 |
| CC(=O)N1CC(n2c(Cl)cnc2-c2nc3c(s2)CCOc2cc(-c4cnn(CC(C)(C)O)c4)ccc2-3)C1 | > 6.00 |
| Fc1ccc(-n2ncnc2-c2cc3c(s2)-c2nc(NCCN4CCCC4)ccc2OCC3)c(F)c1 | > 6.00 |
| COc1ccc(CNc2ccc3c(n2)-c2sc(-c4ncnn4-c4ccc(F)cc4F)cc2CCO3)cc1 | > 6.00 |
| O=C(c1nc2c(s1)CCOc1cc(-c3cn[nH]c3)ccc1-2)N1CC[C@@H](C(F)(F)F)C1 | > 6.00 |
| CC(C)n1ncnc1-c1nc2c(s1)CCOc1cc(-c3cccc(CC(N)=O)c3)ccc1-2 | > 6.00 |
| CC1(C)C(=O)NC(=O)N1c1nc2c(s1)CCOc1ccccc1-2 | > 6.00 |
| CC(C)n1nc(N)nc1-c1cc2c(s1)-c1ccc(-c3cnn(CC(C)(C)O)c3)cc1OCC2 | > 6.00 |
| CC(C)n1ncnc1-c1nc2c(s1)CCOc1cc(C3CCN(C(C)(C)C(N)=O)CC3)ccc1-2 | > 6.00 |
| CC(O)CCc1ccc2c(n1)-c1sc(-c3ncnn3-c3ccc(F)cc3F)cc1CCO2 (configuration not stated) | > 6.00 |
| Fc1ccc(-n2ncnc2-c2cc3c(s2)-c2nc(-c4ccc(N5CCCCC5)nc4)ccc2OCC3)c(F)c1 | > 6.00 |
| CC(C)n1ncnc1-c1nc2c(s1)CCOc1ccc(C3CN(CC(N)=O)C3)cc1-2 | > 6.00 |
| CC(C)(O)Cn1cc(-c2ccc3c(c2)OCCc2sc(C(=O)N(CCO)C4CCOCC4)nc2-3)cn1 | > 6.00 |
| Cc1nc(-c2nc3c(s2)CCOc2cc(C4CN(CCO)C4)ccc2-3)n(C(C)C)n1 | > 6.00 |
| Cc1nc(-c2nc3c(s2)CCOc2cc(C4CN(C(=O)[C@H](C)O)C4)ccc2-3)n(C(C)C)n1 | > 6.00 |
| Cc1cc(-c2ccc3c(n2)-c2sc(-c4ncnn4-c4ccc(F)cc4F)cc2CCO3)cnc1N1CCOCC1 | > 6.00 |
| CC(C)(O)CCc1ccc2c(n1)-c1sc(-c3ncnn3-c3ccc(F)cc3F)cc1CCO2 | > 6.00 |
| O=C(c1nc2c(s1)CCOc1cc(-c3cn[nH]c3)ccc1-2)N1CCN(c2cccnc2)CC1 | > 6.00 |
| CC(C)n1ncnc1-c1nc2c(s1)CCOc1ccc(-c3ccc(N4CCCC4)nc3)cc1-2 | > 6.00 |
| CC(C)Oc1ncccc1-c1ccc2c(c1)-c1nc(-c3ncnn3C(C)C)sc1CCO2 | > 6.00 |
| CNc1ccc(-c2ccc3c(c2)-c2nc(C(=O)N(CCO)C(C)C)sc2CCO3)cn1 | > 6.00 |
| CS(=O)(=O)N1CCN(C(=O)c2nc3c(s2)CCOc2cc(-c4cn[nH]c4)ccc2-3)CC1 | > 6.00 |
| Nc1ccc2c(n1)-c1sc(-c3ncnn3-c3ccc(F)cc3F)cc1CCO2 | > 6.00 |
